How the values were obtained:
α-syn [1] = molecular target: T1, α-syn (Homo sapiens, UniProt P37840); test: Far-UV CD of fibrillated α-syn–peptide samples; format: biochemical; conditions: fibrillated samples after washing, signal at 218 nm; versus α-syn alone
T1 construct: made in house; host or cells: Escherichia coli BL21 (DE3), plasmid pET11-D
From the text: (§1) To analyze the secondary structure of the final aggregates, we recorded far-UV CD and attenuated total reflectance (ATR)–FTIR spectra for fibrillated samples after washing to remove free α-syn and peptides. […] Overall, as the concentration of peptides increases, the intensity of signal at 218 nm decreases (Fig. 4A). We observed that α-syn fibrils formed in the presence of p194, p222, p235, and p249 precipitated rapidly after mixing with these peptides. This likely gives rise to light scattering, which reduces CD signals. To overcome these artifacts, we turned to ATR–FTIR spectroscopy, which is not sensitive to scattering. […] Both far-UV CD and ATR–FTIR spectroscopy confirm extensive β-sheet structure. However, in the presence of peptides, some structural changes were observed as reflected by the decrease in the amyloid cross β-sheet structure at ∼1629 cm^−1 and increases in the random and coil structures (∼1656 and ∼1676 cm^−1, respectively) (Table 2). […] Taking all together, ATR–FTIR data are in reasonable agreement with far-UV CD.
To remove free α-syn and peptides, fibrillated samples were centrifuged (13,000 rpm, 15 min). This leaves monomeric α-syn plus unbound and free peptides in the supernatant. The supernatant was discarded, and the pellet was washed two times in the same volume of PBS buffer, pH 7.4, to ensure complete removal of monomeric α-syn and free peptides. Far-UV CD spectra were recorded at 25 °C on a Chirascan CD Spectrophotometer (Applied Photophysics) using a 0.1 mm quartz cuvette in the wavelength range of 200 to 260 nm with 1 nm bandwidth and three accumulations. The buffer spectrum was subtracted, and the results were expressed as mean residue ellipticity [θ] (deg cm^2 dmol^−1).

αSOs = molecular target: T2, αSOs (Homo sapiens, UniProt P37840); test: Calcein release assay, αSOs together with peptides; format: biochemical; conditions: αSOs at calcein^50% (5.2 μg/ml)
T2 construct: made in house; host or cells: Escherichia coli BL21 (DE3); oligomers formed by shaking the monomer and isolated by SEC (Superose 6)
Method: (§2) αSOs show cytotoxic properties, which have been attributed to their membrane-disrupting ability ([69]). To examine the effect of peptides on membrane permeabilization by αSOs, we used a simple calcein release assay. αSOs, peptides, and aSO–peptide mixtures at 10^−6 to 10^−1 mg/ml peptide were added to calcein-loaded DOPG vesicle, and the extent of calcein release was monitored for 30 min by the increase in fluorescence as calcein leaks out upon membrane permeabilization, leading to dilution and the loss of self-quenching. The time-dependent calcein release data from DOPG vesicles ([70], [71]) in the presence of peptides, αSOs, and αSO–peptides are shown in Figs. S9 and S10. In order to allow easy comparison of all peptides, the calcein release versus concentration (peptides and αSOs) were plotted at the plateau point of release (Fig. 5, A–C). […] Figure 5D compares calcein release percentages of data represented in Figure 5, A and B at peptide concentrations between 0.001 and 0.1 mg/ml, where we see the largest extent of calcein release in general.
(§3) Calcein-filled vesicles of DOPG were prepared as described before ([38]). Briefly, DOPG was dissolved in PBS to […], in the presence of calcein at self-quenching concentrations (70 mM) and subjected to 10 freeze–thaw cycles between liquid nitrogen and a 50 °C water bath. After 21 times extrusion through a 100 nm filter, free calcein was separated from vesicles with a PD-10 desalting column (GE Healthcare). Vesicles were stored at 4 °C and used for calcein release assays within 24 h.
(§4) Calcein release was measured by mixing peptides and/or αSOs at a final concentration of 10^−6 to 10^−1 mg/ml and 5.2 μg/ml, respectively, in 148 μl with 2 μl of calcein vesicles, and were then loaded onto a 96-well plate (Nunc, Thermo Fischer Scientific) in triplicate. The plate was sealed with Crystal clear sealing tape (Hampton Research), and fluorescence was measured (excitation: 485 nm and emission: 520 nm) for 1 h at 37 °C every 2 min with a 2 s autoshake before each reading on a fluorescence plate reader (Tecan). Finally, 2 μl Triton X-100 (0.2% [v/v]) was added to lyse vesicles, and the maximal fluorescence signal was measured for 20 min under the same reading condition. Background fluorescence was subtracted, and the average signal of calcein release before addition of Triton X-100 (F), after treatment with Triton X-100 (Ft) and for the buffer control (F0) were determined, and calcein release percentage was calculated as follow (Equation 1):(1) CalceinRelease%(CR%)=(F−F0)/(Ft−F0)

α-syn [2] = molecular target: T1, α-syn; test: ThT fluorescence assay of unseeded α-syn fibrillation in the presence of peptides; format: biochemical; conditions: 1 mg/ml α-syn, 0–0.5 mg/ml peptide, 48 h
Method: To test the effects of these selected nine peptides on the aggregation of α-syn, we performed a thioflavin T (ThT) fluorescence assay in the presence of 1 mg/ml α-syn and 0 to 0.5 mg/ml peptide for 48 h (raw data in Fig. S3). Furthermore, the peptides alone were monitored for self-fibrillation. […] High concentrations of p222, p194, and p249 led to a decline in ThT fluorescence after reaching a plateau, possibly because of the formation of insoluble amorphous species. We also carried out seeding experiments by adding 5% sonicated preaggregated α-syn fibrils to the ThT assay.
About 150 μl of 70 μM (1 mg/ml) α-syn, 40 μM ThT, and varying amounts of peptides (0, 0.06, 0.125, 0. 25, 0.375, and 0.5 mg/ml) were transferred in triplicates to a black COSTAR 96-well clear bottom plate (Nunc, Thermo Fisher Scientific), and including a 3 mm diameter glass bead (Glaswarenfabrik Karl Hecht GmbH & Co KG) per well to increase reproducibility ([100]). The plate was sealed with Crystal Clear sealing tape (Hampton Research) and incubated at 37 °C in a CLARIOstar Plus (BMG LABTECH) fluorescence plate reader. Fibrillation was carried out for ∼48 h with 300 rpm double orbital shaking between the readings for 372 s (excitation/emission: 448∕485 nm). Seeding experiments were performed using the same setting as for the fibrillation assay as described ([39]). Briefly, the experiments were done in triplicates in the presence of 0.05 mg/ml of α-syn fibril seeds (5% seeding) and 1 mg/ml of peptides in a solution of 1 mg/ml α-syn in 96-well plates.

α-syn [3] = molecular target: T1, α-syn; test: ATR–FTIR of fibrillated α-syn–peptide samples; format: biochemical; conditions: for ATR–FTIR (amyloid structures): fibrillated samples after washing, versus α-syn alone; for Amount of amyloid structures (ATR–FTIR), in words: fibrillated α-syn samples in the presence of peptides
From the text: as §1
The samples prepared in the CD section were also used to measure FTIR spectra on a Tensor 27 FTIR spectrophotometer (Bruker). About 2 μl α-syn fibrils were dried on the ATR crystal with a gentle stream of nitrogen gas. Spectra were accumulations of 68 scans in the 4000 to 1000 cm^−1 range. Baseline correlation, second derivative, and atmospheric compensation were performed with OPUS 5.5 software (Bruker, Germany). Signals in the amide I region (∼1550–1700 cm^−1) were smoothed and deconvoluted with PeakFit, version 4.12 software (ِSystat Software Inc) using Lorentzian fitting.

[4] = Calcein release assay, substance alone; conditions: for Permeabilization of lipid vesicles by peptide alone: calcein-loaded DOPG vesicles, 10^−6 to 10^−1 mg/ml peptide, 37 °C, triplicate
Method: as §2, §3, §4

α-syn [5] = molecular target: T1, α-syn; test: TEM of α-syn aggregates formed with peptides; format: biochemical; conditions: α-syn incubated in the presence of peptide
Method: Five microliters of each fibril-containing solution were applied to 400-mesh carbon-coated and glow-discharged nickel grids for 30 s, and blotted with filter paper to remove excess sample. The grids were washed with one drop of double distilled water and then stained with 3 μl of 1% uranyl formate for 15 s. Excess stain was removed by blotting paper This step was repeated two more times. Finally, the grids were left to air dry and viewed on a Tecnai G2 Spirit (FEI Company) operating at 60 kV, and images were taken using a TemCam F416 camera (TVIPS).

α-syn [6] = molecular target: T1, α-syn; test: SDS-PAGE of soluble α-syn left in supernatant after fibrillation; format: biochemical; conditions: SDS-PAGE after centrifugation of fibrillated samples
Method: Overall, there was a reasonable but not perfect correspondence between SDS-PAGE and ThT data.
To determine the amount of soluble α-syn, fibrillated samples were centrifuged (13,000 rpm, 15 min) and the supernatants were loaded on Bis–Tris 15% acrylamide gel with prestained protein ladder (Thermo Scientific) and run in a Bis–Tris running buffer at 150 V for 70 min, stained for 20 min in Coomassie brilliant blue (1.2 mM Coomassie brilliant blue, 5% ethanol, and 7% acetic acid), and destained overnight in a destaining solution (5% ethanol and 5% acetic acid). Gel bands were quantified using ImageJ.

Aβ = conditions: cited from earlier work
From the text: Penetratin is a widely used CPP. Translocation of full-length and N-terminal truncated ([82]) penetratin has been observed in all cell types, and it is also able to cross the blood–brain barrier (BBB) ([83]). Its mechanism of translocation in live cells is complex and involves structural changes from random coil to α-helix ([84]) and transient formation of tubes or inverted micelles in the membrane that entrap the peptide in its interior. […]. The presence of Trp and net positively charged amino acid residues are important for formation of inverted ...

| Substance | Far-UV CD (β-sheet structures) (α-syn [1]) | Effect on vesicle permeabilization by αSOs (αSOs; peptide 0.1 mg/ml) | Effect on α-syn aggregation (ThT), in words (α-syn [2]) | ThT signal end level (α-syn [2]; unseeded ThT, 37 °C, versus α-syn alone) | ATR–FTIR (amyloid structures) (α-syn [3]) | Amount of amyloid structures (ATR–FTIR), in words (α-syn [3]) | Peptide concentration from which membrane toxicity is shown ([4]; peptide alone, calcein-filled DOPG LUVs, tested range 10^−1–10^−6 mg/ml) | Morphology of α-syn aggregates (TEM), in words (α-syn [5]) | Effect on vesicle permeabilization by αSOs (αSOs; peptide 10^−6 to 10^−1 mg/ml) | Permeabilization of lipid vesicles by peptide alone [4] | Amount of soluble α-syn monomer left in the supernatant, in words (α-syn [6]) | Inhibition of amyloid aggregate formation (Aβ fibrillation) (Aβ) |
| --- | --- | --- | --- | --- | --- | --- | --- | --- | --- | --- | --- | --- |
| RQIKIWFQARRMKWKK [p194, Ala scan variant of penetratin] | ↓↓↓β | increased vesicle permeabilization by αSOs | inhibitory effect | ↓↓ | ↓↓↓ amyl | decreased | > 10^−2 mg/ml | nonfibrillar (amorphous) accumulations |  |  |  |  |
| KEGVVAAAEKTKQG [p12] | ↓β |  | did not change the lag phase duration |  | ↓ amyl | did not show significant changes in FTIR spectra |  | did not cause any significant change in morphology | failed to affect vesicle permeabilization by αSOs | did not permeabilize lipid vesicles | do not affect the amount of monomer left in the supernatant |  |
| RQILIWFQNRRMLWLL [pAntp-BSB1] |  |  |  |  |  |  |  |  |  |  |  | particularly effective inhibitors |
| MKGLSKAKEGVVAA [p5] | ↓β |  | did not change the lag phase duration |  | ↓ amyl | slightly decreased the amount of amyloid |  | did not cause any significant change in morphology | failed to affect vesicle permeabilization by αSOs | did not permeabilize lipid vesicles | do not affect the amount of monomer left in the supernatant |  |
| SASDSRTFKSSGG [p162] | ↓β |  | did not change the lag phase duration |  |  | slightly decreased the amount of amyloid |  | did not cause any significant change in morphology | failed to affect vesicle permeabilization by αSOs | did not permeabilize lipid vesicles | do not affect the amount of monomer left in the supernatant |  |
| RQIKIWFQNRRMLWLXaa [pAntp] |  |  |  |  |  |  |  |  |  |  |  | particularly effective inhibitors |

— publication PMC9791135, “A penetratin-derived peptide reduces the membrane permeabilization and cell toxicity of α-synuclein oligomers” (The Journal of Biological Chemistry, 2022)
